Source: PMC5218480 (PLoS ONE, 2017)

System: MV-4-11 cells
Assay: Gene expression microarray analysis (Affymetrix PrimeView) and GSEA
Format: cell-based, human
Set-up: RFU PODN (11730768_x_at) / Fold change /veh PODN (11730768_x_at) / RFU LINC00158 (11744669_a_at) / Fold change /veh LINC00158 (11744669_a_at) / RFU DUSP10 (11751237_a_at) / Fold change /veh DUSP10 (11751237_a_at) / RFU ID3 (11757404_x_at) / Fold change /veh ID3 (11757404_x_at) / RFU PLEKHG5 (11737974_s_at) / Fold change /veh PLEKHG5 (11737974_s_at) / RFU LRRC4B (11730491_at) / Fold change /veh LRRC4B (11730491_at) / RFU GIMAP4 (11747438_a_at) / Fold change /veh GIMAP4 (11747438_a_at) / RFU KRT8 (11758183_x_at) / Fold change /veh KRT8 (11758183_x_at) / RFU CNN1 (11734310_a_at) / Fold change /veh CNN1 (11734310_a_at) / RFU VPS37D (11726825_at) / Fold change /veh VPS37D (11726825_at) / RFU C10orf10 (11716522_x_at) / Fold change /veh C10orf10 (11716522_x_at) / RFU KIR2DL2 /// KIR2DL4 /// KIR2DL5A /// KIR2DL5B /// KIR2DS1 /// KIR2DS2 /// KIR2DS3 /// KIR2DS4 /// KIR3DL3 /// KIR3DL3 /// KIR3DS1 (11738374_at) / Fold change /veh KIR2DL2 /// KIR2DL4 /// KIR2DL5A /// KIR2DL5B /// KIR2DS1 /// KIR2DS2 /// KIR2DS3 /// KIR2DS4 /// KIR3DL3 /// KIR3DL3 /// KIR3DS1 (11738374_at) / RFU C1QL1 (11718748_at) / Fold change /veh C1QL1 (11718748_at) / RFU TMPRSS4 (11747572_a_at) / Fold change /veh TMPRSS4 (11747572_a_at) / RFU HAMP (11756126_x_at) / Fold change /veh HAMP (11756126_x_at) / RFU RNFT2 (11725882_a_at) / Fold change /veh RNFT2 (11725882_a_at) / RFU NR4A2 (11747474_a_at) / Fold change /veh NR4A2 (11747474_a_at) / RFU ABCC12 (11746883_a_at) / Fold change /veh ABCC12 (11746883_a_at) / RFU TMEM136 (11760407_x_at) / Fold change /veh TMEM136 (11760407_x_at) / RFU CLDN22 /// WWC2 (11732394_at) / Fold change /veh CLDN22 /// WWC2 (11732394_at) / RFU HLA-DPB1 (11760878_x_at) / Fold change /veh HLA-DPB1 (11760878_x_at) / RFU SPINT1 (11716480_a_at) / Fold change /veh SPINT1 (11716480_a_at) / RFU GAP43 (11754022_s_at) / Fold change /veh GAP43 (11754022_s_at) / RFU A4GNT (11735810_at) / Fold change /veh A4GNT (11735810_at) / RFU PRB3 (11715151_x_at) / Fold change /veh PRB3 (11715151_x_at) / RFU TUBB4B (11761932_at) / Fold change /veh TUBB4B (11761932_at) / RFU CAPN14 (11732068_a_at) / Fold change /veh CAPN14 (11732068_a_at) / RFU TMCC2 (11721928_a_at) / Fold change /veh TMCC2 (11721928_a_at) / RFU IRGQ (11745062_a_at) / Fold change /veh IRGQ (11745062_a_at) / RFU FAM174B (11720279_a_at) / Fold change /veh FAM174B (11720279_a_at) / RFU TMPRSS4 (11748680_a_at) / Fold change /veh TMPRSS4 (11748680_a_at) / RFU FAM212B (11763350_a_at) / Fold change /veh FAM212B (11763350_a_at) / RFU PLEKHG5 (11743358_a_at) / Fold change /veh PLEKHG5 (11743358_a_at) / RFU ZSCAN30 (11745921_a_at) / Fold change /veh ZSCAN30 (11745921_a_at) / RFU CMKLR1 (11741424_a_at) / Fold change /veh CMKLR1 (11741424_a_at) / RFU LOC101060620 /// MAPK8IP1 (11723275_at) / Fold change /veh LOC101060620 /// MAPK8IP1 (11723275_at) / RFU SPTSSB (11747773_x_at) / Fold change /veh SPTSSB (11747773_x_at) / RFU PRSS12 (11739890_at) / Fold change /veh PRSS12 (11739890_at) / RFU BIN1 (11741810_x_at) / Fold change /veh BIN1 (11741810_x_at) / RFU WNT11 (11732464_a_at) / Fold change /veh WNT11 (11732464_a_at) / RFU C10orf10 (11716521_a_at) / Fold change /veh C10orf10 (11716521_a_at) / RFU C5orf56 (11738089_at) / Fold change /veh C5orf56 (11738089_at) / RFU CYB561 (11721691_x_at) / Fold change /veh CYB561 (11721691_x_at) / RFU ANKRD19P (11752326_a_at) / Fold change /veh ANKRD19P (11752326_a_at) / RFU OR2T12 /// OR2T33 /// OR2T8 (11738714_s_at) / Fold change /veh OR2T12 /// OR2T33 /// OR2T8 (11738714_s_at) / RFU VCAN (11748164_a_at) / Fold change /veh VCAN (11748164_a_at) / RFU JSRP1 (11732532_at) / Fold change /veh JSRP1 (11732532_at) / RFU KRTAP10-11 (11738290_x_at) / Fold change /veh KRTAP10-11 (11738290_x_at) / RFU MYO3A (11730013_a_at) / Fold change /veh MYO3A (11730013_a_at) / RFU EBF3 (11725865_a_at) / Fold change /veh EBF3 (11725865_a_at) / RFU CAMK2N1 (11719241_x_at) / Fold change /veh CAMK2N1 (11719241_x_at) / RFU C5orf56 (11738088_a_at) / Fold change /veh C5orf56 (11738088_a_at) / RFU OLFML3 (11715873_a_at) / Fold change /veh OLFML3 (11715873_a_at) / RFU LOC100653217 /// NTM (11731650_a_at) / Fold change /veh LOC100653217 /// NTM (11731650_a_at) / RFU MAPK11 (11762145_a_at) / Fold change /veh MAPK11 (11762145_a_at) / RFU FIZ1 (11724087_x_at) / Fold change /veh FIZ1 (11724087_x_at) / RFU OASL (11726364_x_at) / Fold change /veh OASL (11726364_x_at) / RFU SOX15 (11748057_x_at) / Fold change /veh SOX15 (11748057_x_at) / RFU CD79A (11719716_a_at) / Fold change /veh CD79A (11719716_a_at) / RFU HIST1H1D (11736915_at) / Fold change /veh HIST1H1D (11736915_at) / RFU CASKIN2 (11723855_a_at) / Fold change /veh CASKIN2 (11723855_a_at) / RFU LOC730098 (11760151_x_at) / Fold change /veh LOC730098 (11760151_x_at) / RFU OR4N2 (11742367_at) / Fold change /veh OR4N2 (11742367_at) / RFU PRRT2 (11749266_a_at) / Fold change /veh PRRT2 (11749266_a_at) / RFU SNX32 (11753110_a_at) / Fold change /veh SNX32 (11753110_a_at) / RFU CDHR5 (11726645_a_at) / Fold change /veh CDHR5 (11726645_a_at) / RFU RCAN1 (11760418_a_at) / Fold change /veh RCAN1 (11760418_a_at) / RFU FAM167A (11723789_a_at) / Fold change /veh FAM167A (11723789_a_at) / RFU FAM26E (11764081_at) / Fold change /veh FAM26E (11764081_at) / RFU ISYNA1 (11749810_s_at) / Fold change /veh ISYNA1 (11749810_s_at) / RFU ACY1 (11761880_at) / Fold change /veh ACY1 (11761880_at) / RFU 11764098_at / Fold change /veh 11764098_at / RFU SAMD14 (11745864_x_at) / Fold change /veh SAMD14 (11745864_x_at) / RFU NPB (11741838_a_at) / Fold change /veh NPB (11741838_a_at) / RFU TMPRSS6 (11731388_a_at) / Fold change /veh TMPRSS6 (11731388_a_at) / RFU KRTAP10-2 (11738614_at) / Fold change /veh KRTAP10-2 (11738614_at) / RFU ARHGAP8 /// PRR5-ARHGAP8 (11727945_x_at) / Fold change /veh ARHGAP8 /// PRR5-ARHGAP8 (11727945_x_at) / RFU KRTAP5-7 /// NADSYN1 (11734609_at) / Fold change /veh KRTAP5-7 /// NADSYN1 (11734609_at) / RFU RASL12 (11751679_a_at) / Fold change /veh RASL12 (11751679_a_at) / RFU CDKN2B (11736163_a_at) / Fold change /veh CDKN2B (11736163_a_at) / RFU PRF1 (11729649_at) / Fold change /veh PRF1 (11729649_at) / RFU, ZNF638 /// ZNF638-IT1 / Fold change vs veh, ZNF638 /// ZNF638-IT1 / RFU, PANK3 / Fold change vs veh, PANK3 / RFU, SH3YL1 / Fold change vs veh, SH3YL1 / RFU, ZEB2 / Fold change vs veh, ZEB2 / RFU, NRIP1 / Fold change vs veh, NRIP1 / RFU, PTTG1IP / Fold change vs veh, PTTG1IP / RFU, CAPN2 / Fold change vs veh, CAPN2 / RFU, MED14 / Fold change vs veh, MED14 / RFU, SNORA58 / Fold change vs veh, SNORA58 / RFU, C1orf63 / Fold change vs veh, C1orf63 / RFU, LRRFIP1 / Fold change vs veh, LRRFIP1 / RFU, NDUFAF7 / Fold change vs veh, NDUFAF7 / RFU, SLC12A2 / Fold change vs veh, SLC12A2 / RFU, IBTK / Fold change vs veh, IBTK / RFU, ESF1 / Fold change vs veh, ESF1 / Fold change vs veh, TMEM50B / RFU, TAOK1 / Fold change vs veh, TAOK1 / RFU, ACBD3 / Fold change vs veh, ACBD3 / RFU, TMA16 / Fold change vs veh, TMA16 / RFU, RWDD3 / Fold change vs veh, RWDD3 / RFU, BCAT1 / Fold change vs veh, BCAT1 / RFU, EDEM3 / Fold change vs veh, EDEM3 / RFU, TMEM33 / Fold change vs veh, TMEM33 / RFU, WDR75 / Fold change vs veh, WDR75 / RFU, AHCTF1 / Fold change vs veh, AHCTF1 / RFU, TFRC / Fold change vs veh, TFRC / RFU, ZDHHC17 / Fold change vs veh, ZDHHC17 / RFU, NOM1 / Fold change vs veh, NOM1 / RFU, ARL8B / Fold change vs veh, ARL8B / RFU, ZBTB11 / Fold change vs veh, ZBTB11 / RFU, TAMM41 / Fold change vs veh, TAMM41 / RFU, KIAA1704 /// LOC100996395 / Fold change vs veh, KIAA1704 /// LOC100996395 / RFU, ING1 / Fold change vs veh, ING1 / RFU, TRMT61B / Fold change vs veh, TRMT61B / RFU, FUBP3 / Fold change vs veh, FUBP3 / RFU, TP53 / Fold change vs veh, TP53 / RFU, TNKS2 / Fold change vs veh, TNKS2 / RFU, ZFP14 / Fold change vs veh, ZFP14 / RFU, ACTR2 / Fold change vs veh, ACTR2 / RFU, PPP3R1 / Fold change vs veh, PPP3R1 / RFU, PIK3R1 / Fold change vs veh, PIK3R1 / RFU, HNRNPA1 / Fold change vs veh, HNRNPA1 / RFU, RNF170 / Fold change vs veh, RNF170 / RFU, ZNF28 / Fold change vs veh, ZNF28 / RFU, RNGTT / Fold change vs veh, RNGTT / RFU, OGT / Fold change vs veh, OGT / RFU, BRD1 / Fold change vs veh, BRD1 / RFU, MARS / Fold change vs veh, MARS / RFU, ZNF655 / Fold change vs veh, ZNF655 / RFU, FAHD1 / Fold change vs veh, FAHD1 / RFU, BDP1 / Fold change vs veh, BDP1 / RFU, LRRCC1 / Fold change vs veh, LRRCC1 / RFU, ARID1A / Fold change vs veh, ARID1A / RFU, ZNF146 / Fold change vs veh, ZNF146 / RFU, ZNF330 / Fold change vs veh, ZNF330 / RFU, GPN3 / Fold change vs veh, GPN3 / RFU, C9orf123 / Fold change vs veh, C9orf123 / RFU, N4BP2L2 / Fold change vs veh, N4BP2L2 / RFU, ARFIP1 / Fold change vs veh, ARFIP1 / RFU, FAM179B / Fold change vs veh, FAM179B / RFU, BCL10 / Fold change vs veh, BCL10 / RFU, UHRF1BP1L / Fold change vs veh, UHRF1BP1L / RFU, BET1 / Fold change vs veh, BET1 / RFU, CNOT2 / Fold change vs veh, CNOT2 / RFU, ZNF268 / Fold change vs veh, ZNF268 / Fold change vs veh, ZNF507 / RFU, DGCR2 / Fold change vs veh, DGCR2 / RFU, WDSUB1 / Fold change vs veh, WDSUB1 / Fold change vs veh, HSP90B1 /// MIR3652 / RFU, ADSS / Fold change vs veh, ADSS / RFU, GK / Fold change vs veh, GK / RFU, ZNF148 / Fold change vs veh, ZNF148 / RFU, TAF9 / Fold change vs veh, TAF9 / RFU, SLC1A5 / Fold change vs veh, SLC1A5 / RFU, SLMO2 / Fold change vs veh, SLMO2 / RFU, ABCC4 / Fold change vs veh, ABCC4 / RFU, LOC101060439 /// RAP1B / Fold change vs veh, LOC101060439 /// RAP1B / RFU, RFX7 / Fold change vs veh, RFX7 / RFU, GTPBP10 / Fold change vs veh, GTPBP10 / RFU, CNEP1R1 / Fold change vs veh, CNEP1R1 / RFU, BIVM-ERCC5 /// ERCC5 / Fold change vs veh, BIVM-ERCC5 /// ERCC5 / RFU, ILF3 / Fold change vs veh, ILF3 / RFU 11762660_at / Fold change /veh 11762660_at / RFU VCAN (11757783_s_at) / Fold change /veh VCAN (11757783_s_at) / RFU DDX43 (11728927_at) / Fold change /veh DDX43 (11728927_at) / RFU KRT8 (11758188_x_at) / Fold change /veh KRT8 (11758188_x_at) / RFU NKD1 (11759106_at) / Fold change /veh NKD1 (11759106_at) / RFU SRD5A1 (11742802_a_at) / Fold change /veh SRD5A1 (11742802_a_at) / RFU TPSAB1 /// TPSB2 (11721975_s_at) / Fold change /veh TPSAB1 /// TPSB2 (11721975_s_at) / RFU GSTM3 (11746129_a_at) / Fold change /veh GSTM3 (11746129_a_at) / RFU IL23R (11737362_x_at) / Fold change /veh IL23R (11737362_x_at) / RFU TMEM51 (11727254_a_at) / Fold change /veh TMEM51 (11727254_a_at) / RFU PIWIL2 (11732686_x_at) / Fold change /veh PIWIL2 (11732686_x_at) / RFU ORM1 (11744905_x_at) / Fold change /veh ORM1 (11744905_x_at) / RFU CCDC152 (11743942_at) / Fold change /veh CCDC152 (11743942_at) / RFU ECM1 (11717891_a_at) / Fold change /veh ECM1 (11717891_a_at) / RFU IL23R (11748794_a_at) / Fold change /veh IL23R (11748794_a_at) / RFU TNFAIP8L3 (11732012_x_at) / Fold change /veh TNFAIP8L3 (11732012_x_at) / RFU MBOAT4 (11741988_at) / Fold change /veh MBOAT4 (11741988_at) / RFU 11764193_at / Fold change /veh 11764193_at / RFU TMEM53 (11763286_at) / Fold change /veh TMEM53 (11763286_at) / RFU MAGEB2 (11727129_at) / Fold change /veh MAGEB2 (11727129_at) / RFU TMEM200A (11744735_a_at) / Fold change /veh TMEM200A (11744735_a_at) / RFU CCDC152 (11751479_a_at) / Fold change /veh CCDC152 (11751479_a_at) / RFU FAM211A (11726209_a_at) / Fold change /veh FAM211A (11726209_a_at) / RFU RGS16 (11746705_a_at) / Fold change /veh RGS16 (11746705_a_at) / RFU VCAN (11755009_s_at) / Fold change /veh VCAN (11755009_s_at) / RFU RHOB (11743442_s_at) / Fold change /veh RHOB (11743442_s_at) / RFU RGS16 (11720943_a_at) / Fold change /veh RGS16 (11720943_a_at) / RFU RGS16 (11720944_at) / Fold change /veh RGS16 (11720944_at) / RFU, VPS4B / Fold change vs veh, VPS4B / RFU, CREB1 / Fold change vs veh, CREB1 / RFU, DNAJC13 / Fold change vs veh, DNAJC13 / RFU, GNAQ / Fold change vs veh, GNAQ / RFU, CDK5R1 / Fold change vs veh, CDK5R1 / RFU, ZRANB3 / Fold change vs veh, ZRANB3 / RFU, CUL4A / Fold change vs veh, CUL4A / RFU, CCNY / Fold change vs veh, CCNY / RFU, UFL1 / Fold change vs veh, UFL1 / RFU, COG3 / Fold change vs veh, COG3 / RFU, DIAPH2 / Fold change vs veh, DIAPH2 / RFU, SKA2 / Fold change vs veh, SKA2 / RFU, AFF3 / Fold change vs veh, AFF3 / RFU, LMF1 / Fold change vs veh, LMF1 / RFU, IPO11 / Fold change vs veh, IPO11 / RFU, DFFB / Fold change vs veh, DFFB / RFU, FOXP1 / Fold change vs veh, FOXP1 / RFU, CARD8 / Fold change vs veh, CARD8 / RFU, STRN3 / Fold change vs veh, STRN3 / RFU, ADK / Fold change vs veh, ADK / RFU, RASSF2 / Fold change vs veh, RASSF2 / RFU, WIPF1 / Fold change vs veh, WIPF1 / RFU, LARP1B / Fold change vs veh, LARP1B / RFU, RASA1 / Fold change vs veh, RASA1 / RFU, RB1 / Fold change vs veh, RB1 / RFU, PPFIA1 / Fold change vs veh, PPFIA1 / RFU, MAT2A / Fold change vs veh, MAT2A / RFU, CCT5 / Fold change vs veh, CCT5 / RFU, WDR92 / Fold change vs veh, WDR92 / RFU, CUX1 / Fold change vs veh, CUX1 / RFU, TTC7A / Fold change vs veh, TTC7A / RFU, TMEM135 / Fold change vs veh, TMEM135 / RFU, DEPTOR / Fold change vs veh, DEPTOR / RFU, CPM / Fold change vs veh, CPM / RFU, DNAJB6 / Fold change vs veh, DNAJB6 / RFU, CACNA2D3 / Fold change vs veh, CACNA2D3 / RFU, DTX4 / Fold change vs veh, DTX4 / RFU, TFCP2 / Fold change vs veh, TFCP2 / RFU, GMCL1 /// GMCL1P1 / Fold change vs veh, GMCL1 /// GMCL1P1 / RFU, AEBP2 / Fold change vs veh, AEBP2 / RFU, SNHG1 /// SNORD22 /// SNORD25 /// SNORD26 /// SNORD27 /// SNORD28 /// SNORD29 /// SNORD31 / Fold change vs veh, SNHG1 /// SNORD22 /// SNORD25 /// SNORD26 /// SNORD27 /// SNORD28 /// SNORD29 /// SNORD31 / Fold change (Aza/veh), C12orf56 (ProbeSet 11735607_a_at) / Fold change (ACY-1035/veh), C12orf56 (ProbeSet 11735607_a_at) / Fold change (Aza/veh), FGFR1OP (ProbeSet 11751329_s_at) / Fold change (ACY-1035/veh), FGFR1OP (ProbeSet 11751329_s_at) / Fold change (Aza/veh), VPS36 (ProbeSet 11739960_a_at) / Fold change (ACY-1035/veh), VPS36 (ProbeSet 11739960_a_at) / RFU SYPL1 (11715823_x_at) / Fold change /veh SYPL1 (11715823_x_at) / RFU IGFBP7 (11715501_s_at) / Fold change /veh IGFBP7 (11715501_s_at) / RFU REEP3 (11722064_at) / Fold change /veh REEP3 (11722064_at) / RFU IGLL1 (11728026_x_at) / Fold change /veh IGLL1 (11728026_x_at): dose or concentration left out as unconfirmed
Settings: ProbeSet 11749551_a_at; LIST B

Nc1ccc(-c2cccs2)cc1NC(=O)c1ccc2c(c1)cc(C1CC1)n2CCN1CCOCC1 [ACY-1035]
RFU, RNGTT: 53.54 RFU
